Assay [1] deals with T1, Acetylcholinesterase (Homo sapiens, UniProt P22303). Nature of the assay: Inhibition of human AChE using acetylthiocholine iodide as substrate after 15 mins by Ellman's method.
The target of assay [2] is T2, Cholinesterase (Homo sapiens, UniProt P06276). Briefly: Inhibition of BChE (unknown origin).
In assay [3] the target is T3, Cholinesterase (Equus caballus, UniProt P81908). Nature of the assay: Inhibition of equine BuChE.
The target in assay [4] is T4, Acetylcholinesterase (Electrophorus electricus, UniProt O42275). Briefly: Inhibition of electric eel AChE.
The target of assay [5] is T1, Acetylcholinesterase. Briefly: Inhibition of human AChE at 15 uM relative to control.
In assay [6] the target is Acetylcholinesterase (Electrophorus electricus) (UniProt O42275). Briefly: Inhibition of electric eel AChE using acetylthiocholine iodide as substrate at 50 uM by Ellman's method relative to control.
Assay [7] in a line: Selectivity index, ratio of IC50 for human AChE to IC50 for equine BChE using butyrylthiocholine as substrate.
The target of assay [8] is T2, Cholinesterase. Nature of the assay: Inhibition of human BChE using butyrylthiocholine as substrate by Ellman's method. On the technique in general: DTNB colorimetry detects thiols as they appear.
Assay [9] has as its target T4, Acetylcholinesterase. Nature of the assay: Inhibition of Electric eel AChE using […] as substrate by spectrophotometry based Ellman's method.
A short description of assay [10]: Inhibition of equine serum BChE using butyrylthiocholine iodide as substrate by Ellman's method. Further details: species or system Equus caballus.
The target in assay [11] is T4, Acetylcholinesterase. Nature of the assay: Inhibition of electric eel AChE using acetylthiocholine iodide as substrate after 60 mins by Ellman's method.
Assay [12] concerns the target T3, Cholinesterase. Briefly: Inhibition of equine serum BuChE by Ellman's method.
In assay [13] the target is Amyloid-beta precursor protein (Homo sapiens) (UniProt P05067). Briefly: Inhibition of self induced amyloid-beta aggregation (1 to 42 residues) (unknown origin) at 20 uM by ThT fluorescence based spectrofluorimetric analysis relative to control.
In assay [14] the target is T3, Cholinesterase. Nature of the assay: Inhibition of equine serum BuChE using butyrylthiocholine iodide as substrate preincubated for 60 mins followed by susbtrate addition by Ellaman"s method. It is filed as cell-free.
Assay [15] concerns the target T5, Protein deacetylase HDAC6 (Homo sapiens, UniProt Q9UBN7).
T5 sequence (Q9UBN7 whole entry): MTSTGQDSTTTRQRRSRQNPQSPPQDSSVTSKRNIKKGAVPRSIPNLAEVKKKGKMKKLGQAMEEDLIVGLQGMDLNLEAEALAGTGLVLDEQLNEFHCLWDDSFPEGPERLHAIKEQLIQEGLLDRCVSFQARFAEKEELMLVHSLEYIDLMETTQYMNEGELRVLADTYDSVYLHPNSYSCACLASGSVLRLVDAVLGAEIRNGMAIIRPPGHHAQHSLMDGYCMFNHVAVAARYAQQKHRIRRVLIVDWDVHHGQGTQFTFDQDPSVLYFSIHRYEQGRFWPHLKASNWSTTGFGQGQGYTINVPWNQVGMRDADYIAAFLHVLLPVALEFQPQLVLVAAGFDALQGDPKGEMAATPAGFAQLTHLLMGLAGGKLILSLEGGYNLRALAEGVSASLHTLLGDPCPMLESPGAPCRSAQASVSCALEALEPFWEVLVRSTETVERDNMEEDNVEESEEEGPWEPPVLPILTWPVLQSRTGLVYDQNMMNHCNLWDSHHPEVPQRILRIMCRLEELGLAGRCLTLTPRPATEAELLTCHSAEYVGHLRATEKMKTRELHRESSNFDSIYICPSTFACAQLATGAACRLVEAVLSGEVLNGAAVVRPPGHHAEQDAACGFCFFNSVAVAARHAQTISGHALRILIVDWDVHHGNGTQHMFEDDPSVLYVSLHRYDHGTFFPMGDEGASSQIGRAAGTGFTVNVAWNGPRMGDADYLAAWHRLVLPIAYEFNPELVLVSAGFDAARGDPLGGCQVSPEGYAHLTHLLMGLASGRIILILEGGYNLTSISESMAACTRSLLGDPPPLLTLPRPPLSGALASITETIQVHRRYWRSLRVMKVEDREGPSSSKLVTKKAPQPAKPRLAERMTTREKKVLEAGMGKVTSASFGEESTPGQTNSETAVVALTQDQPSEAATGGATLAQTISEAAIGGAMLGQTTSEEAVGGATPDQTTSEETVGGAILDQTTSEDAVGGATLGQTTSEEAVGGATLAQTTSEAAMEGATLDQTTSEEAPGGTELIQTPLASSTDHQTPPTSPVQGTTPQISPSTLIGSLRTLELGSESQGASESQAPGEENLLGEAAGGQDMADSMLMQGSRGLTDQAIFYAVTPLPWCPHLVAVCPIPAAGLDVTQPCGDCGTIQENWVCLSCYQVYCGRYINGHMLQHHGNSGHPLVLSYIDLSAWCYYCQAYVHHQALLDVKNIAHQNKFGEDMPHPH
Briefly: Inhibition of HDAC6 (unknown origin).

In assay [16] the target is T2, Cholinesterase. Nature of the assay: Inhibition of human BChE using butyrylthiocholine iodide as substrate preincubated for 15 min followed by substrate addition measured after 40 min by Ellman's method.
The target of assay [17] is T2, Cholinesterase.
Assay [18] deals with T1, Acetylcholinesterase.
Assay [19] concerns the target T6, Amine oxidase [flavin-containing] A (Homo sapiens, UniProt P21397).
T6 sequence (P21397 whole entry): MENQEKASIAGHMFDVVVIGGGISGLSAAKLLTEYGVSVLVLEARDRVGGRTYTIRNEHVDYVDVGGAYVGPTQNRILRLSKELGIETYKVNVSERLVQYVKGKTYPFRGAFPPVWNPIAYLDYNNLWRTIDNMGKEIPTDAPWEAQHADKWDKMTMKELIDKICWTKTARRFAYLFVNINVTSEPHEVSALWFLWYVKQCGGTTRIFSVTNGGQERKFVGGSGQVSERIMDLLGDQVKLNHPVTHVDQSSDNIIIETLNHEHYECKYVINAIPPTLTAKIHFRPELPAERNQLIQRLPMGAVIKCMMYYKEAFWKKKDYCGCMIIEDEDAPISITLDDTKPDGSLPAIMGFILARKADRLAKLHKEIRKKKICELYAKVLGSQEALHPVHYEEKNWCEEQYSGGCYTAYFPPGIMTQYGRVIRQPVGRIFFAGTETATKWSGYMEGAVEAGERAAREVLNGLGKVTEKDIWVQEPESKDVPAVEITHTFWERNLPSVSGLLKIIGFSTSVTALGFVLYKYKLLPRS
Nature of the assay: Inhibition of human recombinant MAO-A using kynuramine as substrate by incubated for 75 mins by spectrophotometric analysis.

Assay [20] addresses T7, Amine oxidase [flavin-containing] B (Homo sapiens, UniProt P27338).
T7 sequence (P27338 whole entry): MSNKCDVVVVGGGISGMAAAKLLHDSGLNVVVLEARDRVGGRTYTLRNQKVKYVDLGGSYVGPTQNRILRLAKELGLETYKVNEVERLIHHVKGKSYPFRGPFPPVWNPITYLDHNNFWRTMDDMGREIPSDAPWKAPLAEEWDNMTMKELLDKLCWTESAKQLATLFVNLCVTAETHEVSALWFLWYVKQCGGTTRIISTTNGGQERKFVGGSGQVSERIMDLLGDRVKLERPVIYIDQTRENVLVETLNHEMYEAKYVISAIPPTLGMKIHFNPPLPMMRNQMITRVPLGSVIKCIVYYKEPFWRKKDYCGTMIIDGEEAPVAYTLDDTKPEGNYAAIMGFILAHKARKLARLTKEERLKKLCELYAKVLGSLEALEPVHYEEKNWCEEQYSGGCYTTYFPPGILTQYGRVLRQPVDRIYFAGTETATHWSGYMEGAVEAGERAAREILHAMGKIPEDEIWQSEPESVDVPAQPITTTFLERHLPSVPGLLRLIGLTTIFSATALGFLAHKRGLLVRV
Nature of the assay: Inhibition of human recombinant MAO-B using benzylamine as substrate by fluorescence based analysis.

A short description of assay [21]: Inhibition of equine serum BChE using butyrylthiocholine iodide as substrate by measured after 30 mins Ellman's method. It counts as cell-free, Equus caballus.

Some results are limits rather than exact numbers.

T3 sequence (P81908 whole entry): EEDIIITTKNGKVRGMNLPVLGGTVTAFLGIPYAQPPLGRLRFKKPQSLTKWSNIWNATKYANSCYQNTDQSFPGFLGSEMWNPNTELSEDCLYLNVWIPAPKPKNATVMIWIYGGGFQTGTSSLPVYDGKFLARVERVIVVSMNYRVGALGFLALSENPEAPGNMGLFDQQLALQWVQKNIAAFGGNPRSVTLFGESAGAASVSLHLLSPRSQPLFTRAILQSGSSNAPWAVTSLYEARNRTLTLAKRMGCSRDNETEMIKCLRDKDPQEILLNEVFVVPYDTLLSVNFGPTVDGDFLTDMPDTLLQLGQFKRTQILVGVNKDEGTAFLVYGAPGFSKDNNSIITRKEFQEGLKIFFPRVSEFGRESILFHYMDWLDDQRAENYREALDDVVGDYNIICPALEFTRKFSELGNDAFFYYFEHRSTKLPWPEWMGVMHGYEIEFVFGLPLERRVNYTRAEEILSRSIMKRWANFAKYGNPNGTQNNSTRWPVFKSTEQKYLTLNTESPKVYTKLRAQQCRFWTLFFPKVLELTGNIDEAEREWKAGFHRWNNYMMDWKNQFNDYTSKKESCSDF
T1 sequence (P22303 whole entry): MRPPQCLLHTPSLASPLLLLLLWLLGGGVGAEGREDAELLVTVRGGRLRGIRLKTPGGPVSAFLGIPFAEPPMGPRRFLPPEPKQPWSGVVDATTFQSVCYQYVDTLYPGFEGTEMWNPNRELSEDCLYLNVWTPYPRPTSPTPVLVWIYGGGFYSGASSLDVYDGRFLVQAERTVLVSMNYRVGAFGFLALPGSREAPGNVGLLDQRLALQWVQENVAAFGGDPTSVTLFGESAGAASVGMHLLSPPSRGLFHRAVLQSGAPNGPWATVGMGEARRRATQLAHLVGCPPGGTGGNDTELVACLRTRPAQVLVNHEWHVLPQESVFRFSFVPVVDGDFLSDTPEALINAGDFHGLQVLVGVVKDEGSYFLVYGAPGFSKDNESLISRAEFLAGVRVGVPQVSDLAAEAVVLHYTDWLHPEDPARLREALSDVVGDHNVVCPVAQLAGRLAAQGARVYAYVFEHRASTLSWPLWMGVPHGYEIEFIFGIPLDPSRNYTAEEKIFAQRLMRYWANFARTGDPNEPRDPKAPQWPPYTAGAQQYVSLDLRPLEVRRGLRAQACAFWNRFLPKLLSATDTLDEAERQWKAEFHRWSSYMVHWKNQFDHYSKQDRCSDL
T4 sequence (O42275 whole entry): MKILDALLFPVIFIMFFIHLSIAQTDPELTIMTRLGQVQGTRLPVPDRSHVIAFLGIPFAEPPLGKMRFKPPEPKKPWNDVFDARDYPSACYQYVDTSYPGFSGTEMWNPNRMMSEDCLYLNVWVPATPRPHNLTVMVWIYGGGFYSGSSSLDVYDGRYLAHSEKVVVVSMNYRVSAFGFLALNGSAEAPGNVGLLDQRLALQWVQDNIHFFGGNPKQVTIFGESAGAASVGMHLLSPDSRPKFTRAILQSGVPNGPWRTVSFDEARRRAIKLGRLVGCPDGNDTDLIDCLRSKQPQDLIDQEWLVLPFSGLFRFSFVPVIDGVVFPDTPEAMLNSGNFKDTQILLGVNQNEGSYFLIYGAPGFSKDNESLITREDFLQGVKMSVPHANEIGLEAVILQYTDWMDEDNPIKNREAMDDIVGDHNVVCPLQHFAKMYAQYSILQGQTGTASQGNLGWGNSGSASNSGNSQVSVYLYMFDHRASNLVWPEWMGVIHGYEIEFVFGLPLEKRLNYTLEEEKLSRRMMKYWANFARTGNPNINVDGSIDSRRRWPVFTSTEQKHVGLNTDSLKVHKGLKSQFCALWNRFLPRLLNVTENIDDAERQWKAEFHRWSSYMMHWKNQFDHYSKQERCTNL
T2 sequence (P06276 whole entry): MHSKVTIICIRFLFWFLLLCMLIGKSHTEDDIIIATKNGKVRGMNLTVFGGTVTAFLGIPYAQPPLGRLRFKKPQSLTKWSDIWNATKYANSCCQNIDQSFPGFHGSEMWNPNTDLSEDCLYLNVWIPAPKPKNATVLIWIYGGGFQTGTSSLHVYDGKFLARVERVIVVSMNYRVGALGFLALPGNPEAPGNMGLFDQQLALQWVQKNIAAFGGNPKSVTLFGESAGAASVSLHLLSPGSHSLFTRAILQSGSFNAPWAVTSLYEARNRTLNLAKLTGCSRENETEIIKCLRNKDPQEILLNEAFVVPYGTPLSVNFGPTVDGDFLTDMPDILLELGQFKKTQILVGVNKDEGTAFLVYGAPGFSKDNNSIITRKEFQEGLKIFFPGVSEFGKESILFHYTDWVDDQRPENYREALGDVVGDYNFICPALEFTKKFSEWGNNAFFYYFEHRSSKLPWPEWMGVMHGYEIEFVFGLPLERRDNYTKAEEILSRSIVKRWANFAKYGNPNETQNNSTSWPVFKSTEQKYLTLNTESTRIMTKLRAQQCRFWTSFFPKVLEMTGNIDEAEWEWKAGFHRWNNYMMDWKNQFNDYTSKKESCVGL
Chain of Amyloid-beta precursor protein (Homo sapiens) (P05067 whole entry, the tested form may be a part): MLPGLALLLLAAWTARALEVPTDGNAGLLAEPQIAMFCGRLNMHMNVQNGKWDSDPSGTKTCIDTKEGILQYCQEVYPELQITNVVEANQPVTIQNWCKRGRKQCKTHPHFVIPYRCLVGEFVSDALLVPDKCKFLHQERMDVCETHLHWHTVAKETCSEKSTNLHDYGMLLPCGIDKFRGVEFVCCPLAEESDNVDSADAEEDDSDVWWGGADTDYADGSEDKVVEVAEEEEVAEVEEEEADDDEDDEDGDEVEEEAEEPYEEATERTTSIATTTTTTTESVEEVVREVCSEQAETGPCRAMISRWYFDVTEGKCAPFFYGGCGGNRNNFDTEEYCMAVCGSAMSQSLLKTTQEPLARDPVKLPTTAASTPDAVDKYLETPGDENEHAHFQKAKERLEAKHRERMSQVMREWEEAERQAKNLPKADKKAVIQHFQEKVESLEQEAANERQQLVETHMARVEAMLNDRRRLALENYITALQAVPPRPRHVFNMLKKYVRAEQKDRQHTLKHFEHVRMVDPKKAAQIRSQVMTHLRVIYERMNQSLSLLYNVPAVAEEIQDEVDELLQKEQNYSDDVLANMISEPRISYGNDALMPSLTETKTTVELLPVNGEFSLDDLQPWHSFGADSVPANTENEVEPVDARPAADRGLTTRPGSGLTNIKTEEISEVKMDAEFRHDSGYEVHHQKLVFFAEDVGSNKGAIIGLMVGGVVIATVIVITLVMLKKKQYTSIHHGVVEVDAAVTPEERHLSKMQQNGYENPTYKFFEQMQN
Chain of Acetylcholinesterase (Electrophorus electricus) (O42275 24-633 limits assumed): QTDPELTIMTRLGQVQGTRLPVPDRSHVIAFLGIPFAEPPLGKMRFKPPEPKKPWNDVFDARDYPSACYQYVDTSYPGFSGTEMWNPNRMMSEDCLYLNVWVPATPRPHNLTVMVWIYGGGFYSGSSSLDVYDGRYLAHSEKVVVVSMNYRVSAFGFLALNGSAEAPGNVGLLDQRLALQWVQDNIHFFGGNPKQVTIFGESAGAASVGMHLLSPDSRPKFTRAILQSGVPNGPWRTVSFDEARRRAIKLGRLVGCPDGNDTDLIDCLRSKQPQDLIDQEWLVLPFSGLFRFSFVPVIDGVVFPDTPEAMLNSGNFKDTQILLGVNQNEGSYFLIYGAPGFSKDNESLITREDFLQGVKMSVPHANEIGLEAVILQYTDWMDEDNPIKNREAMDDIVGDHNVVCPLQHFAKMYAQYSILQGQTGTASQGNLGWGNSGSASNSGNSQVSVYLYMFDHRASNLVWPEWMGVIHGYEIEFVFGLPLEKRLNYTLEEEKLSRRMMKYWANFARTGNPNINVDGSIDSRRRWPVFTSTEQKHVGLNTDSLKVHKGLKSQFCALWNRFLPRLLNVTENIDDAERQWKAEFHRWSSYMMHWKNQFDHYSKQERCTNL

Usually IC50 stands for the concentration needed to halve the response being measured. On to `COc1cc(CNCCCNc2c3c(nc4ccccc24)CCCCC3)ccc1O`, for which the IC50 worked out at 3.01 µM against Acetylcholinesterase [1] and 0.357 µM at Cholinesterase [2]. Turning to `Fc1ccc2c(c1)c1c(n2CCN2CCCCC2)CCCC1`, the IC50 at Cholinesterase [3] is 0.11 µM; at Acetylcholinesterase [4], more than 100 µM. By inhibition is commonly meant how much of the control response was suppressed. As for `CCCCCCNC(=O)Oc1ccc2c(c1)CN1CCc3ccc(/N=N/c4ccccc4)cc3C1N2C` (stereo not drawn), the inhibition against Acetylcholinesterase [5] was 28.5%. The compound `O=C(Nc1ccccc1Cl)C(NS(=O)(=O)c1ccccc1)c1ccccc1` (stereo not drawn) came in with an IC50 against Cholinesterase [3] of 7.33 µM. Further, the inhibition in assay [6] was 1.62%.

`O=C(CNCCCCNCC(=O)Nc1c2c(nc3c1CCC3)CCCC2)Nc1c2c(nc3c1CCC3)CCCC2`: in assay [7], the Ratio IC50 is 22. On to `C/C(NCCCCNc1c2c(nc3ccccc13)CCCC2)=C(/N=N/c1ccc(C)cc1)C(=O)c1ccccc1`, for which, on Cholinesterase [8], the half-inhibitory concentration (IC50) is 0.35 µM. Turning to `Cc1ccc(-c2nc3cc(C(=O)NNc4ccc(Br)cc4)ccc3[nH]2)cc1`, the IC50 against Acetylcholinesterase [9] was more than 100 µM; in [10] it was 1.46 µM. Take `CC(C)N(Cc1ccccc1)C(=O)/C=C/C=C/c1ccc2c(c1)OCO2`: the IC50 was more than 1000 µM against Acetylcholinesterase [11] and 4.6 µM against Cholinesterase [12]. `CCN(C)C(=O)Oc1ccc(CCCNC(=O)c2cccc3[nH]c(-c4ccccc4O)nc23)cc1` registered an inhibition in assay [13] of 60.8%.

Consider `O=C(NCCCCCCCCNc1c2c(nc3ccccc13)CCCC2)c1ccccc1O`, for which the IC50 on Cholinesterase [14] is 0.01 µM. As to `CCN(CC)Cc1ccccc1CNC(=O)c1cccc(NC(=O)c2cccc(C(=O)NO)c2)c1`, the half-maximal inhibitory concentration (IC50) in [15] came out at 0.071 µM; against Cholinesterase [16], 0.0018 µM. Consider `COc1ccc2c(c1)CC/C(=C\c1ccc[n+](Cc3ccc(Br)cc3)c1)C2=O`, for which the figures for the IC50 at Acetylcholinesterase [11] and against Cholinesterase [12] were 17.6 µM and 0.883 µM, respectively. Turning to `CCc1[nH]c2ccccc2c1CCN1CCC[C@H](CC)C1`, the half-inhibitory concentration (IC50) against Cholinesterase [17] is 0.65 µM; at Acetylcholinesterase [18] it was more than 100 µM. As to `Cc1ccc(-c2nc3cc(C(=O)Nc4ccc(O)cc4)ccc3[nH]2)cc1`, the IC50 was more than 100 µM against Acetylcholinesterase [9] and 1.13 µM in [10]. `O=C(/C=C/c1ccccc1Cl)c1cc2ccccc2oc1=O`: the figures for the IC50 in [19], in assay [20] and in assay [21] were more than 40 µM, 0.51 µM and 7 µM, respectively. At Acetylcholinesterase [5], `CCCCCCNC(=O)Oc1ccc2c(c1)CN1CCc3ccc(/N=N\c4ccccc4)cc3C1N2C` (stereo not drawn) came in with an inhibition of 54.9%. The IC50 at Cholinesterase [17] amounted to 0.044 µM.

The values above are taken from ChEMBL document CHEMBL5579820, “New insights into butyrylcholinesterase: Pharmaceutical applications, selective inhibitors and multitarget-directed ligands” (Eur J Med Chem, 2024).
